According to PubChem BioAssay (NCI):
“And” between values parts separate entries of the source, which are not always exact repeats. Identical values can stand only once.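 All cell lines were grown in 96-well plates and treated with compound for 48 hours. The concentration for 50% growth inhibition is given as GI50. TGI is the concentration that stops growth completely.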

tested on: MCF7 breast; experiment: inhibition of tumour cell growth, NCI panel, 48 h

Row | Structure (SMILES) | TGI | GI50
1 | O=C(O)C12CC3(C(=O)O)CC(C(=O)O)(CC(C(=O)O)(C1)C3=O)C2=O | > 100 µM | 
2 | CCC(=O)Nc1ccc(N=NN(C)C)cc1 | > 100 µM | 
3 | CO/N=C(/C)c1cccc(Nc2cc(-c3ccccc3)nc3ccc(OC)cc23)c1 | 56.5 µM | 5.71 µM
4 | O=[N+]([O-])c1ccc(CSCc2ccc(Cl)cc2)cc1 | > 100 µM | 

tested on: OVCAR-5 ovarian; experiment: inhibition of tumour cell growth, NCI panel, 48 h

Row | Structure (SMILES) | GI50 | TGI
5 | C=C1CC[C@@H](C(C)C)C[C@@H]2[C@H]([C@H](O)C[C@]2(C)O)[C@@]2(C)CC[C@@H]1O2 | 13.2 µM | 26 µM
6 | Nc1ccc2[nH]cc(CCC(=O)O)c2c1 |  | > 100 µM
7 | OCC(O)CNc1ccnc2cc(Cl)ccc12 (centres undefined) |  | > 100 µM
8 | Cc1cccc(C(C)C)c1NC(=O)C(=O)C(C(=O)c1ccccc1F)C1OC(=O)c2ccccc21 (centres undefined) |  | 99.9 µM
9 | Cc1ccc(Nc2nnc(-c3ccc4c(c3)OCO4)o2)c(C)c1 |  | > 100 µM
10 | Cc1cccc(C)c1NC(=O)C(=O)CC(=O)c1cccc([N+](=O)[O-])c1 |  | > 100 µM
11 | CC1=C(c2cc(C(=O)Nc3ccc(Cl)cc3)nc(=S)[nH]2)Sc2ccccc2N1 |  | > 100 µM
12 | O=C(O)CN(c1ccccc1)S(=O)(=O)c1ccc([N+](=O)[O-])cc1 |  | > 100 µM
13 | CC1=C(C(=O)NNS(=O)(=O)c2ccc(C)cc2)CC(C(=O)NNS(=O)(=O)c2ccc(C)cc2)=C(C)N1 |  | > 100 µM
14 | [F][Sn]([F])([c]1ccccc1)[c]1ccccc1 | 1.51 µM | 3.69 µM
15 | N#CC(C(=O)CCC(=O)Nc1cccc(C(F)(F)F)c1)c1ccc(Cl)cc1 (centres undefined) |  | > 100 µM
16 | Cc1cc(C(C)(C)C)cc(Cc2cc(C(C)(C)C)cc(Cc3cc(C(C)(C)C)cc(C)c3O)c2O)c1O |  | 31.3 µM
17 | COC(=O)/C(=C\c1ccc(N(CCC#N)CCC#N)cc1)NC(=O)c1cc([N+](=O)[O-])ccc1Cl |  | > 100 µM
18 | COC1=C(Br)C(=O)c2nc(C)ccc2C1=O |  | 34.7 µM
19 | C/C(CCn1[nH]c(=O)ccc1=O)=N\OCCCc1ccccc1 |  | > 100 µM
20 | COC(=O)c1cccc2cccc(C(=O)Nc3ccc(Cl)cc3)c12 |  | > 100 µM
21 | N.N.NCCCCCCCCCN.O=C([O-])CC(=O)[O-].O=C([O-])CC(=O)[O-].[Pt+4].[Pt+4] | > 100 µM | > 100 µM
22 | CCN(CC)c1cc2oc3cc(N)cc(=N)c-3nc2cc1C | 2.82 µM | 7.4 µM
23 | CC(=O)OC1C2CCC1C1C2C2(Cl)C(Cl)=C(Cl)C1(Cl)C2(Cl)Cl (centres undefined) |  | 23.1 µM
24 | CC(C(=O)n1c2ccccc2c2ccccc21)N(c1ccccc1)c1ccccc1 (centres undefined) |  | 33.6 µM

Row | Structure (SMILES) | GI50 | TGI
25 | CCOC(=O)Cn1c(=O)n(C)c(=O)c2c1ncn2Cc1ccccc1 |  | > 100 µM
26 | CC(C)(C)OC(=O)N1N=NC2C1C1CC(OCc3ccccc3)(OCc3ccccc3)C2O1 (centres undefined) |  | > 100 µM
27 | O=C1CSC(c2ccc(-c3nc4ccccc4s3)cc2)=N1 | 26.3 µM | > 100 µM
28 | O=C1C(=O)N(c2cc(Cl)ccc2Cl)C(=O)C(=O)C1c1nc2ccccc2o1 |  | > 100 µM
29 | Cc1ncc([N+](=O)[O-])n1CCNS(=O)(=O)CCCn1ncnc1[N+](=O)[O-] |  | > 100 µM
30 | CC1=C(C(=O)Nc2ccccc2)C(c2ccc(C3C(C(=O)Nc4ccccc4)=C(C)NC(C)=C3C(=O)Nc3ccccc3)cc2)C(C(=O)Nc2ccccc2)=C(C)N1 |  | 17.6 µM
31 | O=C(O)C12CC3(C(=O)O)CC(C(=O)O)(CC(C(=O)O)(C1)C3=O)C2=O |  | > 100 µM
32 | CCC(=O)Nc1ccc(N=NN(C)C)cc1 |  | > 100 µM
33 | O=c1c2ccccc2nc(-c2ccccc2)n1NC(=S)Nc1ccccc1 |  | > 100 µM
34 | CCOC(=O)/C(=C/c1cccc(C#N)c1)N(CC)CC |  | > 100 µM
35 | COc1cc(C2C(C(=O)Nc3cc(F)c(F)cc3F)=C(C)NC(C)=C2C(=O)Nc2cc(F)c(F)cc2F)ccc1O |  | 59.9 µM
36 | O=c1nc(-c2ccccc2)cc(-c2ccccc2O)[nH]1 |  | > 100 µM
37 | Oc1ccc(Br)cc1C=Nc1ccc(N=Cc2cc(Br)ccc2O)cc1 |  | > 100 µM
38 | CO/N=C(/C)c1cccc(Nc2cc(-c3ccccc3)nc3ccc(OC)cc23)c1 | 15.3 µM | 37.3 µM
39 | C=CCn1c2c(sc1=S)C(S)N=CN2 (centres undefined) |  | > 100 µM
40 | Cc1cccc(N=C2NC(=O)C(CC(=O)Nc3cccc(C)c3C)S2)c1 (centres undefined) |  | > 100 µM
41 | CN(C)CCSc1nccc(-c2cc3ccccc3s2)n1 |  | 82.4 µM
42 | O=C(O)CSc1n[nH]c(Cc2ccccc2)n1 |  | > 100 µM
43 | O=[N+]([O-])c1ccc(CSCc2ccc(Cl)cc2)cc1 |  | > 100 µM
44 | CCOc1ccccc1NC(=O)C(C#N)C1=C(Cl)C(=O)c2ccccc2C1=O (centres undefined) |  | 3.57 µM and 3.55 µM

tested on: A549 NSCLC; experiment: inhibition of tumour cell growth, NCI panel, 48 h

Row | Structure (SMILES) | GI50 | TGI
45 | C=C1CC[C@@H](C(C)C)C[C@@H]2[C@H]([C@H](O)C[C@]2(C)O)[C@@]2(C)CC[C@@H]1O2 | 17 µM | 32.7 µM
46 | Nc1ccc2[nH]cc(CCC(=O)O)c2c1 |  | > 100 µM
47 | OCC(O)CNc1ccnc2cc(Cl)ccc12 (centres undefined) |  | > 100 µM
48 | Cc1cccc(C(C)C)c1NC(=O)C(=O)C(C(=O)c1ccccc1F)C1OC(=O)c2ccccc21 (centres undefined) |  | > 100 µM
49 | Cc1ccc(Nc2nnc(-c3ccc4c(c3)OCO4)o2)c(C)c1 |  | > 100 µM
50 | Cc1cccc(C)c1NC(=O)C(=O)CC(=O)c1cccc([N+](=O)[O-])c1 |  | > 100 µM
51 | CC1=C(c2cc(C(=O)Nc3ccc(Cl)cc3)nc(=S)[nH]2)Sc2ccccc2N1 |  | > 100 µM
52 | O=C(O)CN(c1ccccc1)S(=O)(=O)c1ccc([N+](=O)[O-])cc1 |  | > 100 µM
53 | CC1=C(C(=O)NNS(=O)(=O)c2ccc(C)cc2)CC(C(=O)NNS(=O)(=O)c2ccc(C)cc2)=C(C)N1 |  | > 100 µM
54 | Clc1cc(Cl)cc(Nc2ccc3cc(OCCCN4CCOCC4)ccc3n2)c1 | 3.93 µM | > 100 µM
55 | [F][Sn]([F])([c]1ccccc1)[c]1ccccc1 | 2.33 µM | 6.45 µM
56 | N#CC(C(=O)CCC(=O)Nc1cccc(C(F)(F)F)c1)c1ccc(Cl)cc1 (centres undefined) |  | > 100 µM
57 | Cc1cc(C(C)(C)C)cc(Cc2cc(C(C)(C)C)cc(Cc3cc(C(C)(C)C)cc(C)c3O)c2O)c1O |  | 18.7 µM
58 | COC(=O)/C(=C\c1ccc(N(CCC#N)CCC#N)cc1)NC(=O)c1cc([N+](=O)[O-])ccc1Cl |  | > 100 µM
59 | COC1=C(Br)C(=O)c2nc(C)ccc2C1=O |  | 38.5 µM
60 | C/C(CCn1[nH]c(=O)ccc1=O)=N\OCCCc1ccccc1 |  | > 100 µM
61 | COC(=O)c1cccc2cccc(C(=O)Nc3ccc(Cl)cc3)c12 |  | > 100 µM
62 | N.N.NCCCCCCCCCN.O=C([O-])CC(=O)[O-].O=C([O-])CC(=O)[O-].[Pt+4].[Pt+4] | > 100 µM | > 100 µM
63 | CCN(CC)c1cc2oc3cc(N)cc(=N)c-3nc2cc1C | 3.63 µM | 18.3 µM
64 | CC(=O)OC1C2CCC1C1C2C2(Cl)C(Cl)=C(Cl)C1(Cl)C2(Cl)Cl (centres undefined) |  | 25.9 µM
65 | CC(C(=O)n1c2ccccc2c2ccccc21)N(c1ccccc1)c1ccccc1 (centres undefined) |  | 38.5 µM
66 | CCOC(=O)Cn1c(=O)n(C)c(=O)c2c1ncn2Cc1ccccc1 |  | > 100 µM
67 | CCCCc1c2c(nc3c1CCC/C3=C\c1ccccc1)/C(=C/c1ccccc1)CCC2 |  | > 100 µM

Row | Structure (SMILES) | GI50 | TGI
68 | CC(C)(C)OC(=O)N1N=NC2C1C1CC(OCc3ccccc3)(OCc3ccccc3)C2O1 (centres undefined) |  | > 100 µM
69 | CC(O)CC(O)(C(F)(F)F)C(F)(F)F (centres undefined) |  | > 10 µM
70 | O=C1CSC(c2ccc(-c3nc4ccccc4s3)cc2)=N1 | 43.9 µM | > 100 µM
71 | CC1=CC(=O)C(C(O)(C(F)(F)F)C(F)(F)F)C(C)(C)C1 (centres undefined) |  | > 10 µM
72 | O=C1C(=O)N(c2cc(Cl)ccc2Cl)C(=O)C(=O)C1c1nc2ccccc2o1 |  | > 100 µM
73 | Cc1ncc([N+](=O)[O-])n1CCNS(=O)(=O)CCCn1ncnc1[N+](=O)[O-] |  | > 100 µM
74 | CC1=C(C(=O)Nc2ccccc2)C(c2ccc(C3C(C(=O)Nc4ccccc4)=C(C)NC(C)=C3C(=O)Nc3ccccc3)cc2)C(C(=O)Nc2ccccc2)=C(C)N1 |  | 21.8 µM
75 | O=C(O)C12CC3(C(=O)O)CC(C(=O)O)(CC(C(=O)O)(C1)C3=O)C2=O |  | > 100 µM
76 | CCC(=O)Nc1ccc(N=NN(C)C)cc1 |  | > 100 µM
77 | O=c1c2ccccc2nc(-c2ccccc2)n1NC(=S)Nc1ccccc1 |  | > 100 µM
78 | CCOC(=O)/C(=C/c1cccc(C#N)c1)N(CC)CC |  | > 100 µM
79 | O=S1(=O)OCCOS(=O)(=O)C1Cl |  | > 100 µM
80 | COc1cc(C2C(C(=O)Nc3cc(F)c(F)cc3F)=C(C)NC(C)=C2C(=O)Nc2cc(F)c(F)cc2F)ccc1O |  | 95.8 µM
81 | O=c1nc(-c2ccccc2)cc(-c2ccccc2O)[nH]1 |  | > 100 µM
82 | Oc1ccc(Br)cc1C=Nc1ccc(N=Cc2cc(Br)ccc2O)cc1 |  | > 100 µM
83 | CCOc1ccccc1NC(=O)C(=O)Cc1nc2ccccc2s1 |  | > 100 µM
84 | CO/N=C(/C)c1cccc(Nc2cc(-c3ccccc3)nc3ccc(OC)cc23)c1 | 23.1 µM | 53.9 µM
85 | C=CCn1c2c(sc1=S)C(S)N=CN2 (centres undefined) |  | > 100 µM
86 | Cc1cccc(N=C2NC(=O)C(CC(=O)Nc3cccc(C)c3C)S2)c1 (centres undefined) |  | > 100 µM
87 | CN(C)CCSc1nccc(-c2cc3ccccc3s2)n1 |  | 36.6 µM
88 | O=C(O)CSc1n[nH]c(Cc2ccccc2)n1 |  | > 100 µM
89 | O=[N+]([O-])c1ccc(CSCc2ccc(Cl)cc2)cc1 |  | > 100 µM
90 | CCOc1ccccc1NC(=O)C(C#N)C1=C(Cl)C(=O)c2ccccc2C1=O (centres undefined) |  | 3.74 µM
